Laboratory results taken from ChEMBL document CHEMBL1201862, “PubChem BioAssay data set” (2004).
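Cells were grown in 96-well plates and exposed to each compound for 48 hours at five concentrations; endpoints were interpolated linearly between bracketing concentrations, or set to the highest concentration if not reached. GI50 is the concentration that inhibits growth by half.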 Calls of active or inactive are those of the source. Rule as the data show it: active = GI50 up to about 1.1 µM and inactive = higher.

How the values were obtained:
Test in all cases: inhibition of tumour cell growth, NCI panel, 48 h
DLD-1 = tested on: DLD-1
DMS-114 = tested on: DMS-114
HOP-18 = tested on: HOP-18
LXFL 529 = tested on: LXFL 529
M19-MEL = tested on: M19-MEL
RXF 631 = tested on: RXF 631
SNB-78 = tested on: SNB-78
XF498 = tested on: XF498

Measured: GI50

CC(C)C(/N=C1\CC2CCC1(C(=O)Nc1ccccc1O)C2(C)C)c1ccccc1 (stereo not given)
inactive: DLD-1 > 10 µM | DMS-114 > 10 µM | HOP-18 > 10 µM | LXFL 529 > 10 µM | M19-MEL > 10 µM | RXF 631 > 10 µM | SNB-78 > 10 µM | XF498 7.29 µM

O=c1nc(NC(c2ccccc2)(c2ccccc2)c2ccccc2)ccn1CCCl
inactive: DLD-1 35.3 µM | DMS-114 14.5 µM | HOP-18 25.5 µM | LXFL 529 13.5 µM | M19-MEL 18.8 µM | RXF 631 27.3 µM | SNB-78 29.2 µM | XF498 14.1 µM

COC12CCC(C(C(=O)c3ccccc3)=C1C(=O)c1ccccc1)C(O)C2 (stereo not given)
inactive: DLD-1 > 100 µM | DMS-114 > 100 µM | LXFL 529 > 100 µM | M19-MEL > 100 µM | RXF 631 > 100 µM | SNB-78 > 100 µM | XF498 > 100 µM

COC1=CC(=O)C2C(C1=O)[C@@H]1c3ccccc3C[C@H]21 (stereo not given in full)
inactive: DLD-1 > 100 µM | M19-MEL > 100 µM | RXF 631 > 100 µM | SNB-78 > 100 µM | XF498 > 100 µM

CC12CCC(=O)N1c1cc([N+](=O)[O-])ccc1N2 (stereo not given)
inactive: DLD-1 > 100 µM | DMS-114 > 100 µM | HOP-18 > 100 µM | LXFL 529 > 100 µM | M19-MEL > 100 µM | RXF 631 > 100 µM | SNB-78 > 100 µM | XF498 > 100 µM

O=C(OC1CC(n2cc(F)c(=O)[nH]c2=O)OC1CSC(=O)c1ccccc1)c1ccccc1 (stereo not given)
inactive: DLD-1 33.8 µM | DMS-114 37.3 µM | HOP-18 33.3 µM | LXFL 529 90.8 µM | M19-MEL 26.5 µM | RXF 631 15.1 µM | SNB-78 32.1 µM

N#C/C(=C\c1cc(O)cc(O)c1)C(N)=O
inactive: DLD-1 > 100 µM | DMS-114 > 100 µM | LXFL 529 > 100 µM | M19-MEL > 100 µM | RXF 631 > 100 µM | SNB-78 > 100 µM | XF498 > 100 µM
